These results are taken from US20080012929A1, “AZO DYE, HEAT-SENSITIVE TRANSFER RECORDING INK SHEET, HEAT-SENSITIVE TRANSFER RECORDING METHOD, COLOR TONER, INKJET INK AND COLOR FILTER” (FUJIFILM Corporation, priority 2006, published 2008).

A short description of data set [1]: Solubility of dye when preparing the ink sheet dye-providing layer-coating composition. In kind it is physicochemical. Also on record: key: A: the dye easily dissolves; B: the dye dissolves; C: the dye is sparingly soluble, but dissolves. The note with it: methyl ethyl ketone/toluene (1/1), polyvinylbutyral resin. The procedure:
A polyester film of 6.0 μm in thickness (trade name: Lumirror, manufactured by Toray Industries, Inc.), a back surface of which had been subjected to a heat resistant lubricating treatment with a 1 μm thick thermosetting acrylic resin, was used as a support. On the front surface of the film, the following dye-providing layer-coating composition was coated by a wire bar coating so that a dry thinness of the dye-providing layer became 1 μm. Thus, Ink sheet 1 was prepared.
Solubility of these dyes contained in these ink sheets were evaluated according to the following three grades: • A: the dye easily dissolves. • B: the dye dissolves. • C: the dye is sparingly soluble, but dissolves.

Data set [2] in a line: Light stability (fastness to light) of the dye image under Xenon light irradiation. Type of data set: physicochemical. The note with it: residual ratio of Status A reflection density (initial 1.0) after Xenon light (17000 lux) for 7 days. The procedure:
Next, each of the thus-image-recorded heat-sensitive transfer image-receiving materials was subjected to irradiation with Xenon light (17000 lux) for 7 days, to examine light stability (fastness to light) of the dye image. Status A reflection densities after irradiation were measured in the portions indicating Status A reflection density of 1.0, and a stability of the image was evaluated in terms of a residual ratio (percentage) based on the reflection density before irradiation, according to the following three grades: • A: 80% or more, but 100% or less • B: 60% or more, but less than 80% • C: less than 60%

In the case of `CC(C)CCn1nc(C(C)(C)C)c(N=Nc2ccc([N+](=O)[O-])cc2)c1N` [(9)], in data set [1], the Solubility of dye result is recorded as “A”. In addition, in data set [2], the Light fastness entry was “A (80% or more, but 100% or less)”.
With `CCC(C)n1nc(C(C)(C)C)c(N=Nc2ccc([N+](=O)[O-])cc2)c1N` (stereo not drawn) [(8)], the Solubility of dye result in data set [1] was “A”. In addition, in data set [2], the Light fastness result is “A (80% or more, but 100% or less)”.
Taken in the same sequence, the figures for `CCN(CCOc1ccc(C2CCCCC2)cc1)c1ccc(C=C(C#N)C#N)c(C)c1` [Dye for Comparison 2, reference compound] were “A” and “C (less than 60%)”.
On to `CCCCCn1nc(C(C)(C)C)c(N=Nc2ccc([N+](=O)[O-])cc2)c1N` [(5)], for which the Solubility of dye result in data set [1] is reported as “A”. Besides, in data set [2], the Light fastness entry was “A (80% or more, but 100% or less)”.
On to `CC(C)Cn1nc(C(C)(C)C)c(N=Nc2ccc([N+](=O)[O-])cc2)c1N` [(7)], for which the Solubility of dye result in data set [1] was “A”. For the same compound, in data set [2], the Light fastness result is on record as “A (80% or more, but 100% or less)”.
As for `CCCCN(CCCC)C(=O)c1ccc2c(c1)C(=O)C(c1nc3ccc(C(C)C)cc3cc1O)C2=O` (stereo not drawn) [Dye for Comparison 3, reference compound], the Solubility of dye entry in data set [1] was “B”. For the same compound, the Light fastness result in data set [2] is “A (80% or more, but 100% or less)”.
